Measured values taken from ChEMBL document CHEMBL1201862, “PubChem BioAssay data set” (2004).
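Results reflect a 48-hour exposure of cells in 96-well plates to compound at five concentrations. GI50: concentration for 50% inhibition of growth.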 Activity calls are given as the source filed them. No stated cut-off is given here; in the data, active = GI50 up to about 1.1 µM and inactive = higher.

Legend:
Experiment in all cases: inhibition of tumour cell growth, NCI panel, 48 h
Malme-3M = tested on: Malme-3M
PC-3 = tested on: PC-3
DU-145 = tested on: DU-145
786-0 = tested on: 786-0
MCF7 = tested on: MCF7
SN12C = tested on: SN12C
SK-OV-3 = tested on: SK-OV-3
HOP-92 = tested on: HOP-92
CCRF-CEM = tested on: CCRF-CEM
HCT-15 = tested on: HCT-15
SW-620 = tested on: SW-620
SNB-75 = tested on: SNB-75
MDA-N = tested on: MDA-N
NCI/ADR-RES = tested on: NCI/ADR-RES
HT-29 = tested on: HT-29
NCI-H226 = tested on: NCI-H226
TK-10 = tested on: TK-10
HCC 2998 = tested on: HCC 2998
NCI-H460 = tested on: NCI-H460
HOP-62 = tested on: HOP-62

Row | Structure (SMILES) | GI50 (Malme-3M) | GI50 (PC-3) | GI50 (DU-145) | GI50 (786-0) | GI50 (MCF7) | GI50 (SN12C) | GI50 (SK-OV-3) | GI50 (HOP-92) | GI50 (CCRF-CEM) | GI50 (HCT-15) [µM] | GI50 (SW-620) | GI50 (SNB-75) | GI50 (MDA-N) | GI50 (NCI/ADR-RES) | GI50 (HT-29) | GI50 (NCI-H226) | GI50 (TK-10) | GI50 (HCC 2998) | GI50 (NCI-H460) | GI50 (HOP-62)
1 | C[C@H](CCC1=NCCN1)[C@H]1CC[C@H]2[C@@H]3CC[C@@H]4C[C@H](O)CC[C@]4(C)[C@H]3CC[C@]12C | 2.44 µM (inactive) | 4.94 µM (inactive) | 13.9 µM (inactive) | 2.37 µM (inactive) | 6.52 µM (inactive) | 8.85 µM (inactive) | 18.8 µM (inactive) | 3.3 µM (inactive) | 4.08 µM (inactive) | 18.5 | 6.84 µM (inactive) | 5.07 µM (inactive) | 10.1 µM (inactive) | 16.1 µM (inactive) | 0.575 µM (active) | 7.46 µM (inactive) | 7.74 µM (inactive) | 5.15 µM (inactive) | 2.91 µM (inactive) | 3.46 µM (inactive)
2 | CN(C)CCCNC(=O)CCNC(=O)c1cc(NC(=O)c2cc(NC(=O)c3cc(NC(=O)c4nc(NC(=O)CCCNC(=O)c5cc(NC(=O)c6cc(NC(=O)c7cc(NC(=O)c8nccn8C)cn7C)cn6C)cn5C)cn4C)cn3C)cn2C)cn1C | > 100 µM (inactive) | > 100 µM (inactive) | > 100 µM (inactive) | > 100 µM (inactive) | > 100 µM (inactive) | > 100 µM (inactive) | > 100 µM (inactive) | > 100 µM (inactive) | > 100 µM (inactive) | > 100 | > 100 µM (inactive) | > 100 µM (inactive) | > 100 µM (inactive) | > 100 µM (inactive) | > 100 µM (inactive) | > 100 µM (inactive) | > 100 µM (inactive) | > 100 µM (inactive) | > 100 µM (inactive) | > 100 µM (inactive)
3 | O=C(O)CSc1nnc(COc2ccc(Cl)cc2)n1-c1ccccc1 | > 100 µM (inactive) | > 100 µM (inactive) | > 100 µM (inactive) | > 100 µM (inactive) | > 100 µM (inactive) | > 100 µM (inactive) | > 100 µM (inactive) | > 100 µM (inactive) | > 100 µM (inactive) | > 100 | > 100 µM (inactive) | > 100 µM (inactive) | > 100 µM (inactive) | > 100 µM (inactive) | > 100 µM (inactive) | > 100 µM (inactive) | > 100 µM (inactive) | > 100 µM (inactive) | > 100 µM (inactive) | > 100 µM (inactive)
4 | CC(NNC(=O)c1cc[n+]([BH2-]C#N)cc1)c1ccccc1 (stereo not given) | > 100 µM (inactive) | > 100 µM (inactive) | > 100 µM (inactive) | > 100 µM (inactive) | > 100 µM (inactive) | > 100 µM (inactive) | > 100 µM (inactive) | > 100 µM (inactive) | > 100 µM (inactive) | > 100 | > 100 µM (inactive) | > 100 µM (inactive) | > 100 µM (inactive) | > 100 µM (inactive) | > 100 µM (inactive) | > 100 µM (inactive) | > 100 µM (inactive) | > 100 µM (inactive) | > 100 µM (inactive) | > 100 µM (inactive)
5 | CN(C)c1ccc(/C=C(\NC(=O)c2ccccc2)C(=O)Nc2ccccc2C(=O)NCc2ccccc2)cc1 | > 100 µM (inactive) | > 100 µM (inactive) | > 100 µM (inactive) | > 100 µM (inactive) | > 100 µM (inactive) | > 100 µM (inactive) | > 100 µM (inactive) | > 100 µM (inactive) | 62.4 µM (inactive) | > 100 | > 100 µM (inactive) | 0.0955 µM (active) | > 100 µM (inactive) | 43.1 µM (inactive) | > 100 µM (inactive) | 50.8 µM (inactive) | > 100 µM (inactive) | > 100 µM (inactive) | > 100 µM (inactive) | 31.4 µM (inactive)
6 | COc1ccccc1NC(=S)N/N=C/c1ccccn1 | 0.193 µM (active) | 0.054 µM (active) | 1.88 µM (inactive) | 0.157 µM (active) | 0.0504 µM (active) | 0.74 µM (active) | 0.446 µM (active) | 1.26 µM (inactive) | 0.276 µM (active) | 0.227 | 0.124 µM (active) | 3.37 µM (inactive) | 1.29 µM (inactive) | 0.0253 µM (active) | < 0.01 µM (active) | 2.12 µM (inactive) | 0.367 µM (active) | 2.37 µM (inactive) | 0.495 µM (active) | 0.247 µM (active)
7 | CCC(C)OC(=O)/C(Br)=C1/OC(=O)c2ccccc2-c2ccccc21 (stereo not given) | 29.7 µM (inactive) | 31.8 µM (inactive) | > 100 µM (inactive) | 48.6 µM (inactive) | 41 µM (inactive) | 34.2 µM (inactive) | 45.6 µM (inactive) | 27.3 µM (inactive) | 4.78 µM (inactive) | 18 | 18.1 µM (inactive) | 31.6 µM (inactive) | 32.6 µM (inactive) | 20.4 µM (inactive) | 23.2 µM (inactive) | 55.2 µM (inactive) | 19.4 µM (inactive) | 16.9 µM (inactive) | 26.2 µM (inactive) | 15.9 µM (inactive)
8 | Oc1c(CN2CCOCC2)ccc2cccnc12 | > 10 µM (inactive) | > 10 µM (inactive) | > 10 µM (inactive) | > 10 µM (inactive) | 4.14 µM (inactive) | > 10 µM (inactive) | > 10 µM (inactive) | > 10 µM (inactive) | 2.54 µM (inactive) | 4.59 | > 10 µM (inactive) | > 10 µM (inactive) | > 10 µM (inactive) | 2.34 µM (inactive) | > 10 µM (inactive) | > 10 µM (inactive) | > 10 µM (inactive) | > 10 µM (inactive) | 4.63 µM (inactive) | > 10 µM (inactive)
9 | Cc1[nH]n(C(=N)N)c(=O)c1CCO | > 100 µM (inactive) | > 100 µM (inactive) | > 100 µM (inactive) | 1.67 µM (inactive) | > 100 µM (inactive) | > 100 µM (inactive) | > 100 µM (inactive) | > 100 µM (inactive) | > 100 µM (inactive) | > 100 | > 100 µM (inactive) | > 100 µM (inactive) | > 100 µM (inactive) | 2.76 µM (inactive) | > 100 µM (inactive) | > 100 µM (inactive) | > 100 µM (inactive) | > 100 µM (inactive) | > 100 µM (inactive) | > 100 µM (inactive)
10 | COC(=O)[C@]1(c2cc3ccccc3n2S(=O)(=O)c2ccccc2)CC2CCC1NC2 (stereo not given in full) | 14.9 µM (inactive) | 12.1 µM (inactive) | 16.1 µM (inactive) | 14.3 µM (inactive) | 13.2 µM (inactive) | 15.7 µM (inactive) | 16.7 µM (inactive) | 9.25 µM (inactive) | 16.1 µM (inactive) | 15.6 | 14.5 µM (inactive) | 12.7 µM (inactive) | 14.7 µM (inactive) | 16.6 µM (inactive) | 12.4 µM (inactive) | 14.6 µM (inactive) | 31.8 µM (inactive) | 9.38 µM (inactive) | 14 µM (inactive) | 18 µM (inactive)
11 | CC(O)C1(CNc2cc(Cl)nc(N)n2)CCCC1 (stereo not given) | > 100 µM (inactive) | > 100 µM (inactive) | > 100 µM (inactive) | > 100 µM (inactive) | > 100 µM (inactive) | > 100 µM (inactive) | > 100 µM (inactive) | 98.9 µM (inactive) | > 100 µM (inactive) | > 100 | > 100 µM (inactive) | 71 µM (inactive) | > 100 µM (inactive) | > 100 µM (inactive) | > 100 µM (inactive) | > 100 µM (inactive) | > 100 µM (inactive) | 23.4 µM (inactive) | > 100 µM (inactive) | > 100 µM (inactive)
12 | C[C@]12CC[C@H]3[C@@H](CCC4=CC(=O)C=C[C@@]43OC(=O)C(F)(F)F)[C@@H]1CCC2=O | 0.558 µM (active) | > 100 µM (inactive) | > 100 µM (inactive) | > 45.6 µM (inactive) | > 100 µM (inactive) | > 100 µM (inactive) | > 100 µM (inactive) | > 100 µM (inactive) | > 100 µM (inactive) | > 100 | > 100 µM (inactive) | > 100 µM (inactive) | > 100 µM (inactive) | > 65.8 µM (inactive) | > 100 µM (inactive) | > 100 µM (inactive) | > 100 µM (inactive) | > 100 µM (inactive) | > 100 µM (inactive) | > 100 µM (inactive)
13 | O=C(O)CN1CCNCCN(CC(=O)O)CCNCC1 | 56.9 µM (inactive) | 19.9 µM (inactive) | > 100 µM (inactive) | > 42.2 µM (inactive) | 28.2 µM (inactive) | > 100 µM (inactive) | 20.1 µM (inactive) | 82.4 µM (inactive) | 4.8 µM (inactive) | 9.29 | 4.2 µM (inactive) | > 21.5 µM (inactive) | 10.9 µM (inactive) | > 100 µM (inactive) | 13.5 µM (inactive) | > 64.7 µM (inactive) | > 100 µM (inactive) | > 82.2 µM (inactive) | 8.49 µM (inactive) | > 100 µM (inactive)
14 | CN(C)C=C1C(=O)c2c(Br)sc(Br)c2C1=O | 14.3 µM (inactive) | 20.7 µM (inactive) | 28.5 µM (inactive) | 33.9 µM (inactive) | 33.7 µM (inactive) | 45.6 µM (inactive) | 22 µM (inactive) | 16.6 µM (inactive) | 30.4 µM (inactive) | 18.1 | 28.3 µM (inactive) | 17 µM (inactive) | 19.7 µM (inactive) | 26.1 µM (inactive) | 28.8 µM (inactive) | 16.3 µM (inactive) | 28.4 µM (inactive) | 13 µM (inactive) | 20.6 µM (inactive) | 27.9 µM (inactive)
